Laboratory results reported in US7132546B2, “Aniline derivatives or salts thereof and cytokine production inhibitors containing the same” (Ishihara Sangyo Kaisha, Ltd., priority 2000, dated 2006).

Assays:
[1] = tested on: interferon γ (IFN-γ) production; assay: Cytokine production inhibitory effect: IFN-γ production by murine spleen cells treated with anti-mouse CD3 antibody and IL-2 (ELISA); format: cell-based, Balb/c mice; conditions: anti-CD3 antibody + IL-2, 40 to 48 hours, read-out: IFN-γ production inhibitory ratio (%); for inhibition at 100 ppm: test compound 100 ppm
Protocol: (§1) Murine spleen cells were treated with anti-mouse CD3 antibody and IL-2 to induce cytokine production. The test compounds were added to the cytokine production system to evaluate their inhibitory effect. Namely, anti-mouse CD3 antibody adjusted to from 10 to 20 μg/ml with borate buffered physiological saline (pH 8.5) was pipetted into a 96-well cell culture plate in an amount of 50 μl/well and left to stand at 4° C. for 18 hours. The unreacted solution was removed, washing with Hank's buffer solution was carried out once, and IL-2 adjusted to 10 ng/ml with a RPMI liquid containing 10% fetal bovine serum (FCS) was pipetted in an amount of 50 μl/well. For the negative control group, a solution alone without anti-CD3 antibody nor IL-2 was applied. Then, the diluted solution of each of the test compounds (concentration: 100 ppm unless otherwise specified) was pipetted in an amount of 50 μl/well, and a cell suspension of 1×10^7 cells/ml, prepared from spleen of Balb/c mice (female, 7 to 10 week old) was pipetted thereinto in an amount of 100 μl/well. After cultivation in an incubator (37° C., 5% carbon dioxide gas) for from 40 to 48 hours, the culture supernatant was recovered to measure the cytokine production amount by ELISA method.
(§2) With respect to interleukin 5 (IL-5) as a typical Th2 type cytokine and interferon γ (IFN-γ) as a typical Th1 type cytokine, measurements were carried out by the following methods, respectively. Namely, quantitative determination of IL-5 was carried out by the following ELISA method. First, rat anti-mouse IL-5 antibody (Endogen Code No. MM-550C) as a primary antibody was diluted with carbonate buffer solution (pH 9.5) to 1 μg/ml, and spread in a 96 well plate (IWAKI, Code No. 3860-096) in an amount of 50 μl/well for coating at 4° C. overnight (16 to 24 hours). Then, the plate was subjected to blocking at 37° C. for 2 hours by phosphate buffered physiological saline containing 10% FCS (pH 7.2) (blocking buffer solution) (250 μl/well). The plate was washed with PBS (washing buffer) containing 0.05% Tween 20 (Nacalai Tesque, Code No. 281-51) four times, and a diluted liquid of the culture supernatant was spread in an amount of 50 μl/well, followed by incubation at room temperature for 1 hour. For preparation of a standard line, recombinant mouse IL-5 (R&D systems, Code No. 405-ML) was employed. The plate was washed with a washing buffer four times, and biotin-labeled rat anti-mouse IL-5 antibody (Pharmingen, Code No. 18062D) as a secondary antibody diluted to 0.5 μg/ml with a blocking buffer containing 0.05% Tween 20 was added thereto (50 μl/well), followed by incubation at room temperature for 1 hour. The plate was washed with a washing buffer four times, strept avidin-labeled peroxidase (ProZyme, Code No. CJ30H001) diluted 800 times with a blocking buffer containing 0.05% Tween 20 was added thereto (50 μl/well), followed by reaction at room temperature for 15 minutes. The plate was washed with a washing buffer four times, and a […] substrate solution (SIGMA, Code No. T-8665) was added thereto in an amount of 100 μl/well for color developing for from 10 to 20 minutes. A 1M sulfuric acid solution was added thereto in an amount of 100 μl/well to terminate the reaction, and absorption (wavelength 450 nm) was measured by means of micro plate reader (SPECTRA max, Wako Pure Chemicals Industries, Ltd.). Quantitative determination of IFN-γ was carried out in the same manner as the measurement of IL-5, employing rat anti-mouse IFN-γ antibody (Pharmingen, Code No. 18181D) and biotin labeled rat anti-mouse IFN-γ antibody (Pharmingen, Code NO. 18112D), as a primary antibody and a secondary antibody, respectively. For preparation of a standard line, recombinant mouse IFN-γ (GENZYME, Code No. 3485) was employed. The experiment was carried out in duplicate, and the average of the cytokine production amount was obtained. […]

[2] = tested on: interleukin 5 (IL-5) production; assay: Cytokine production inhibitory effect: IL-5 production by murine spleen cells treated with anti-mouse CD3 antibody and IL-2 (ELISA); format: cell-based, Balb/c mice; conditions: anti-CD3 antibody + IL-2, 40 to 48 hours, read-out: IL-5 production inhibitory ratio (%); for inhibition at 100 ppm: test compound 100 ppm
Protocol: as §1, §2

| Compound | inhibition at 100 ppm [1] [%] | melting point [°C] | inhibition at 100 ppm [2] [%] | inhibition at 2 ppm ([1]; test compound 2 ppm) [%] | inhibition at 2 ppm ([2]; test compound 2 ppm) [%] |
| --- | --- | --- | --- | --- | --- |
| Cc1cc(Oc2ncc(C(F)(F)F)cc2Cl)ccc1NC(=O)c1cc([N+](=O)[O-])ccc1Cl [compound 91] | 1 | 219 to 221 | 53 | – | – |
| O=C(Nc1cccc(C(F)(F)F)c1)c1cc([N+](=O)[O-])ccc1Cl [compound 33] | 100 | 168 | 100 | – | – |
| O=C(Nc1ccc(Oc2ccccc2)cc1)c1cc([N+](=O)[O-])ccc1Cl [Compound No. 27, N-(4-phenoxyphenyl)-2-chloro-5-nitrobenzamide] | 99 | 128 | 96 | – | – |
| COC(=O)c1cc(NC(=O)c2cc([N+](=O)[O-])ccc2Cl)ccc1Oc1ncc(C(F)(F)F)cc1Cl [compound 107] | 97 | 226 to 229 | 99 | – | – |
| Cc1cc(C23CC4CC(CC(C4)C2)C3)ccc1NS(=O)(=O)c1cc(Cl)ccc1Cl [compound 24] | – | 200 | 100 | – | – |
| O=C(Nc1ccc(Oc2ncc(C(F)(F)F)cc2Cl)cc1)c1cc([N+](=O)[O-])ccc1F [compound 98] | 99 | 168 to 170 | 96 | – | – |
| Cc1cc(C23CC4CC(CC(C4)C2)C3)ccc1NC(=O)c1cccc(C#N)c1 [compound 50] | 98 | 83 | 95 | – | – |
| Cc1cc(C23CC4CC(CC(C4)C2)C3)ccc1NC(=O)c1ccccc1 [compound 61] | 89 | 198 | 79 | – | – |
| Cc1cc(C23CC4CC(CC(C4)C2)C3)ccc1NC(=O)c1ccc(Cl)c([N+](=O)[O-])c1 [compound 62] | 100 | 111 | 100 | – | – |
| O=C(Nc1ccc(Oc2ccc(C(F)(F)F)cc2Cl)cc1)c1cc([N+](=O)[O-])ccc1F [compound 95] | 100 | – | 100 | – | – |
| CS(=O)(=O)c1ccc(Cl)c(C(=O)Nc2ccc(Oc3ncc(C(F)(F)F)cc3Cl)cc2)c1 [compound 88] | 17 | 221 | 72 | – | – |
| Cc1cc(C23CC4CC(CC(C4)C2)C3)ccc1NC(=O)c1cc(Cl)ccc1[N+](=O)[O-] [compound 57] | 98 | 233 | 90 | – | – |
| O=C(Nc1ccc(Cc2ccccc2)cc1)c1cc([N+](=O)[O-])ccc1O [compound 18] | 100 | 211.5 to 214.4 | 100 | – | – |
| Cc1cc(C23CC4CC(CC(C4)C2)C3)ccc1NC(=O)c1cccc(Cl)c1[N+](=O)[O-] [compound 58] | 96 | 256 | 97 | – | – |
| Cc1cc(C23CC4CC(CC(C4)C2)C3)ccc1N(C)C(=O)c1cc([N+](=O)[O-])ccc1Cl [compound 102] | 100 | – | 100 | – | – |
| O=C(Nc1ccc(-c2ccccc2)cc1)c1cc([N+](=O)[O-])ccc1Cl [compound 83] | 76 | 203 to 206 | 90 | – | – |
| O=C(Nc1ccc2c(c1)CCC2)c1cc([N+](=O)[O-])ccc1Cl [compound 139] | 50 | 225 to 229 | 89 | – | – |
| Cc1cc(-c2nc3ccccc3s2)ccc1NC(=O)c1cc([N+](=O)[O-])ccc1Cl [Compound No. 2] | – | 220 to 226 | – | 84 | 74 |
| CSc1ccc(Cl)c(C(=O)Nc2ccc(C34CC5CC(CC(C5)C3)C4)cc2C)c1 [compound 68] | 99 | 65 | 92 | – | – |

| Compound | inhibition at 100 ppm [1] [%] | melting point [°C] | inhibition at 100 ppm [2] [%] | inhibition at 2 ppm ([1]; test compound 2 ppm) [%] | inhibition at 2 ppm ([2]; test compound 2 ppm) [%] |
| --- | --- | --- | --- | --- | --- |
| Cc1cc(NC(=O)c2cc([N+](=O)[O-])ccc2Cl)ccc1Nc1ncc(C(F)(F)F)cc1Cl [compound 148] | 81 | 189 to 192 | 94 | – | – |
| O=C(Nc1ccc(Oc2ncc(C(F)(F)F)cc2Cl)c(C2CCCCC2)c1)c1cc([N+](=O)[O-])ccc1Cl [compound 114] | 100 | – | 100 | – | – |
| O=C(Nc1ccc(Oc2ccc(C(F)(F)F)cn2)c(Cl)c1)c1ccc(F)cc1 [Compound No. 12] | – | 174 to 176 | 33 | – | – |
| O=C(Nc1ccc([S+]([O-])c2ncc(C(F)(F)F)cc2Cl)cc1)c1cc([N+](=O)[O-])ccc1Cl (stereo not drawn) [compound 103] | 100 | – | 100 | – | – |
| O=C(Nc1ccc(Oc2ncc(C(F)(F)F)cc2Cl)c([N+](=O)[O-])c1)c1cc([N+](=O)[O-])ccc1Cl [compound 108] | – | 233 to 236 | – | – | – |
| O=C(Nc1ccc(OC2C3CC4CC(C3)CC2C4)nc1)c1cc([N+](=O)[O-])ccc1Cl (stereo not drawn) [compound 124] | 100 | – | 100 | – | – |
| O=C(Nc1ccc(Oc2ccc(C(F)(F)F)cn2)c(Cl)c1)c1ccccc1Cl [compound 71] | – | 168 to 169 | 89 | – | – |
| O=C(Nc1ccc(NC23CC4CC(CC(C4)C2)C3)nc1)c1cc([N+](=O)[O-])ccc1Cl [compound 147] | 100 | – | 99 | – | – |
| O=C(Nc1ccc(Nc2ccccc2)cc1)c1cc([N+](=O)[O-])ccc1Cl [compound 65] | 100 | – | 100 | – | – |
| O=C(Nc1ccc(Oc2ccc(C(F)(F)F)cn2)c(Cl)c1)c1cc(Cl)cc(Cl)c1O [compound 16] | – | 176 to 178 | 100 | – | – |
| O=C(Nc1ccc(Oc2ccc(C(F)(F)F)cn2)c(Cl)c1)c1ccc(F)cc1F [compound 11] | – | 145 to 147 | 37 | – | – |
| O=C(Nc1ccc(Oc2ccc(C(F)(F)F)cn2)c(Cl)c1)c1ccc(Oc2ccc(C(F)(F)F)cn2)c(Cl)c1 [compound 72] | – | 206 to 209 | 51 | – | – |
| Cc1ccccc1NC(=O)c1cc([N+](=O)[O-])ccc1Cl [compound 19] | 88 | – | 96 | – | – |
| O=C(Nc1ccc(Oc2ccc(C(F)(F)F)cn2)c(Cl)c1)c1ccccc1 [compound 14] | – | 170 to 172 | 46 | – | – |
| O=C(Nc1ccc(Oc2ccc(C(F)(F)F)cn2)c(Cl)c1)c1ccccc1F [Compound No. 13] | – | 141 to 143 | 36 | – | – |
| O=C(Nc1ccccc1C(F)(F)F)c1cc([N+](=O)[O-])ccc1Cl [compound 39] | 100 | – | 97 | – | – |
| O=C(Nc1ccc(OC23CC4CC(CC(C4)C2)C3)cc1)c1cc([N+](=O)[O-])ccc1Cl [compound 134] | 98 | – | 97 | – | – |
| O=C(Nc1ccc(S(=O)(=O)c2ncc(C(F)(F)F)cc2Cl)cc1)c1cc([N+](=O)[O-])ccc1Cl [compound 104] | 100 | – | 100 | – | – |
